Results reported in patent publication US9884842B2, “Combretastatin analogs” (The Board of Trustees of the University of Arkansas, priority 2013, dated 2018).
Like-named read-outs stand apart in the source and are kept apart here.

Columns and labels:
MDA-MB-231/ATCC = experiment: NCI growth inhibition and cytotoxicity screen, Breast Cancer panel; details: Homo sapiens; for GI50: MDA-MB-231; for CC50: MDA-MB-231, read-out: LC50
SF-268 = experiment: NCI growth inhibition and cytotoxicity screen, CNS Cancer panel; details: Homo sapiens; for GI50: SF-268; for CC50: SF-268, read-out: LC50
SK-MEL-5 = experiment: NCI growth inhibition and cytotoxicity screen, Melanoma panel; details: Homo sapiens; for GI50: SK-MEL-5; for CC50: SK-MEL-5, read-out: LC50
ACHN = experiment: NCI growth inhibition and cytotoxicity screen, Renal Cancer panel; details: Homo sapiens; for CC50: read-out: LC50
UACC-257 = experiment: NCI growth inhibition and cytotoxicity screen, Melanoma panel; details: Homo sapiens; for GI50: UACC-257; for CC50: UACC-257, read-out: LC50
OVCAR-5 = experiment: NCI growth inhibition and cytotoxicity screen, Ovarian Cancer panel; details: Homo sapiens; for GI50: OVCAR-5; for CC50: OVCAR-5, read-out: LC50
NCI-H322M = experiment: NCI growth inhibition and cytotoxicity screen, Lung Cancer panel; details: Homo sapiens; for CC50: read-out: LC50
CAKI-1 = experiment: NCI growth inhibition and cytotoxicity screen, Renal Cancer panel; details: Homo sapiens; for GI50: CAKI-1; for CC50: CAKI-1, read-out: LC50
MDA-MB-435 = experiment: NCI growth inhibition and cytotoxicity screen, Melanoma panel; details: Homo sapiens; for GI50: MDA-MB-435; for CC50: MDA-MB-435, read-out: LC50
RXF 393 = experiment: NCI growth inhibition and cytotoxicity screen, Renal Cancer panel; details: Homo sapiens; for GI50: RXF 393; for CC50: RXF 393, read-out: LC50
A498 = experiment: as above; details: Homo sapiens; for GI50: A498; for CC50: A498, read-out: LC50
U251 = experiment: NCI growth inhibition and cytotoxicity screen, CNS Cancer panel; details: Homo sapiens; for GI50: U-251; for CC50: U-251, read-out: LC50
UACC-62 = experiment: NCI growth inhibition and cytotoxicity screen, Melanoma panel; details: Homo sapiens; for GI50: UACC-62; for CC50: UACC-62, read-out: LC50
SF-295 = experiment: NCI growth inhibition and cytotoxicity screen, CNS Cancer panel; type: cell-based; details: Homo sapiens, Table 2, cell line SF-295 (CNS Cancer); for CC50: read-out: LC50 (the source's name)
[1] = test system: full panel of 60 different cancer cell lines; experiment: NCI five dose screen, full panel summary; type: cell-based, human; details: for GI50: Homo sapiens; for potent growth inhibition on % of the cancer cell lines: share of the cancer cell lines potently inhibited
HCT-15 = experiment: NCI growth inhibition and cytotoxicity screen, Colon Cancer panel; details: Homo sapiens; for GI50: HCT-15; for CC50: HCT-15, read-out: LC50
NCI-H460 = experiment: NCI growth inhibition and cytotoxicity screen, Lung Cancer panel; details: Homo sapiens; for GI50: NCI-H460; for CC50: NCI-H460, read-out: LC50
K-562 = experiment: NCI growth inhibition and cytotoxicity screen, Leukemia panel; details: Homo sapiens; for GI50: K562; for CC50: K562, read-out: LC50
OVCAR-8 = experiment: NCI growth inhibition and cytotoxicity screen, Ovarian Cancer panel; details: Homo sapiens; for GI50: OVCAR-8; for CC50: OVCAR-8, read-out: LC50
DU-145 = experiment: NCI growth inhibition and cytotoxicity screen, Prostate Cancer panel; details: Homo sapiens; for GI50: DU-145; for CC50: DU-145, read-out: LC50
SK-MEL-2 = experiment: NCI growth inhibition and cytotoxicity screen, Melanoma panel; details: Homo sapiens; for GI50: SK-MEL-2; for CC50: SK-MEL-2, read-out: LC50
OVCAR-4 = experiment: NCI growth inhibition and cytotoxicity screen, Ovarian Cancer panel; details: Homo sapiens; for GI50: OVCAR-4; for CC50: OVCAR-4, read-out: LC50
MCF7 = experiment: NCI growth inhibition and cytotoxicity screen, Breast Cancer panel; details: Homo sapiens; for GI50: MCF7; for CC50: MCF7, read-out: LC50
MDA-MB-468 = experiment: cells; details: Homo sapiens; for GI50: MDA-MB-468; for CC50: MDA-MB-468, read-out: LC50
TK-10 = experiment: NCI growth inhibition and cytotoxicity screen, Renal Cancer panel; details: Homo sapiens; for GI50: TK-10; for CC50: TK-10, read-out: LC50
MALME-3M = experiment: NCI growth inhibition and cytotoxicity screen, Melanoma panel; details: Homo sapiens
HT29 = experiment: NCI growth inhibition and cytotoxicity screen, Colon Cancer panel; details: Homo sapiens; for GI50: HT-29; for CC50: HT-29, read-out: LC50
[2] = range over the potently inhibited cell lines, read-out: GI50 ranging (potently inhibited cancer cell lines)
[3] = read-out: average GI50 value on all the cancer cell lines

`COc1cc(OC)cc(/C(C#N)=C/c2cnc3ccccc3c2)c1` [PNR-4-85, (Z)-3-(quinolin-3-yl)-2-(3,5-dimethoxyphenyl)acrylonitrile] showed a GI50 (MDA-MB-231/ATCC) of 1150 nM, a CC50 (MDA-MB-231/ATCC) greater than 100000 nM and a GI50 (SF-268) of 654 nM. It also gave a CC50 (SF-268) greater than 100000 nM, a GI50 (SK-MEL-5) of 249 nM and a CC50 (SK-MEL-5) greater than 100000 nM. It also gave a GI50 (ACHN) of 1190 nM, a CC50 (ACHN) greater than 100000 nM and a GI50 (UACC-257) of 12800 nM. For the same compound, the CC50 (UACC-257) was greater than 100000 nM, the GI50 (OVCAR-5) was 587 nM and the CC50 (OVCAR-5) was greater than 100000 nM. For the same compound, the GI50 (NCI-H322M) was 903 nM, the CC50 (NCI-H322M) was greater than 100000 nM and the GI50 (CAKI-1) was 223 nM. The CC50 (CAKI-1) was greater than 100000 nM, the GI50 (MDA-MB-435) was 53 nM and the CC50 (MDA-MB-435) was greater than 100000 nM. For the same compound, the GI50 (RXF 393) was 297 nM, the CC50 (RXF 393) was greater than 100000 nM and the GI50 (A498) was 333 nM. It also gave a CC50 (A498) greater than 100000 nM, a GI50 (U251) of 374 nM and a CC50 (U251) greater than 100000 nM. The GI50 (UACC-62) was 357 nM, the CC50 (UACC-62) was greater than 100000 nM and the GI50 (SF-295) was 243 nM. For the same compound, the CC50 (SF-295) was greater than 100000 nM, the GI50 [1, 2] was 53 to 903 nM and the GI50 [1, 3] was 2210 nM. The “potent growth inhibition on % of the cancer cell lines” value [1] was 81%, the GI50 (HCT-15) was 455 nM and the CC50 (HCT-15) was greater than 100000 nM. The GI50 (NCI-H460) was 362 nM, the CC50 (NCI-H460) was greater than 100000 nM and the GI50 (K-562) was 243 nM. For the same compound, the CC50 (K-562) was greater than 100000 nM, the GI50 (OVCAR-8) was 584 nM and the CC50 (OVCAR-8) was greater than 100000 nM. It also gave a GI50 (DU-145) of 505 nM, a CC50 (DU-145) greater than 100000 nM and a GI50 (SK-MEL-2) of 709 nM. For the same compound, the CC50 (SK-MEL-2) was greater than 100000 nM, the GI50 (OVCAR-4) was 1730 nM and the CC50 (OVCAR-4) was greater than 100000 nM. The GI50 (MCF7) was 333 nM, the CC50 (MCF7) was greater than 100000 nM and the GI50 (MDA-MB-468) was 217 nM. The CC50 (MDA-MB-468) was greater than 100000 nM, the GI50 (TK-10) was 17700 nM and the CC50 (TK-10) was greater than 100000 nM. It also gave a GI50 (MALME-3M) of 635 nM, a CC50 (MALME-3M; read-out: LC50) greater than 100000 nM and a GI50 (HT29) of 362 nM. For the same compound, the CC50 (HT29) was greater than 100000 nM.

With `COc1cc(/C(C#N)=C/c2ccc3ccccc3n2)cc(OC)c1OC` [PNR-4-90, (Z)-3-(quinolin-2-yl)-2-(3,4,5-trimethoxyphenyl)acrylonitrile] the GI50 (MDA-MB-231/ATCC) was 943 nM, the CC50 (MDA-MB-231/ATCC) was greater than 100000 nM and the GI50 (SF-268) was 835 nM. The CC50 (SF-268) was greater than 100000 nM, the GI50 (SK-MEL-5) was 243 nM and the CC50 (SK-MEL-5) was greater than 100000 nM. For the same compound, the GI50 (ACHN) was 1040 nM, the CC50 (ACHN) was greater than 100000 nM and the GI50 (UACC-257) was 761 nM. The CC50 (UACC-257) was greater than 100000 nM, the GI50 (OVCAR-5) was 580 nM and the CC50 (OVCAR-5) was greater than 100000 nM. It also gave a GI50 (NCI-H322M) of 718 nM, a CC50 (NCI-H322M) greater than 100000 nM and a GI50 (CAKI-1) of 68 nM. The CC50 (CAKI-1) was greater than 100000 nM, the GI50 (MDA-MB-435) was 33 nM and the CC50 (MDA-MB-435) was 60000 nM. The GI50 (RXF 393) was 271 nM, the CC50 (RXF 393) was greater than 100000 nM and the GI50 (A498) was 295 nM. The CC50 (A498) was greater than 100000 nM, the GI50 (U251) was 355 nM and the CC50 (U251) was 90500 nM. It also gave a GI50 (UACC-62) of 92 nM, a CC50 (UACC-62) greater than 100000 nM and a GI50 (SF-295) of 277 nM. The CC50 (SF-295) was greater than 100000 nM, the GI50 [1, 2] was 33 to 943 nM and the GI50 [1, 3] was 400 nM. For the same compound, the “potent growth inhibition on % of the cancer cell lines” value [1] was 91%, the GI50 (HCT-15) was 319 nM and the CC50 (HCT-15) was greater than 100000 nM. For the same compound, the GI50 (NCI-H460) was 361 nM, the CC50 (NCI-H460) was greater than 100000 nM and the GI50 (K-562) was 80 nM. It also gave a CC50 (K-562) greater than 100000 nM, a GI50 (OVCAR-8) of 446 nM and a CC50 (OVCAR-8) greater than 100000 nM. The GI50 (DU-145) was 446 nM, the CC50 (DU-145) was greater than 100000 nM and the GI50 (SK-MEL-2) was 483 nM. The CC50 (SK-MEL-2) was greater than 100000 nM, the GI50 (OVCAR-4) was 1430 nM and the CC50 (OVCAR-4) was greater than 100000 nM. It also gave a GI50 (MCF7) of 275 nM, a CC50 (MCF7) greater than 100000 nM and a GI50 (MDA-MB-468) of 243 nM. It also gave a CC50 (MDA-MB-468) greater than 100000 nM, a GI50 (TK-10) of 4690 nM and a CC50 (TK-10) greater than 100000 nM. The GI50 (HT29) was 240 nM and the CC50 (HT29) was greater than 100000 nM.
